Measurements reported in ChEMBL document CHEMBL5705887, “Distinct concentration-dependent effects of the polo-like kinase 1-specific inhibitor GSK461364A, including differential effect on apoptosis” (Cancer Res, 2009).
The source made the active and inactive calls. No cut-off for these calls is given here.

Experiments:
[1] = tested on: A549; assay: Antimitotic activity against human A549 cells assessed as cell cycle block in G2-M phase measuring by accumulation of 4N DNA content at 10 nmol/L incubated for 24 hrs by PI staining based flow cytometric analysis; assay type: functional
[2] = tested on: A549; assay: Induction of mitotic arrest in human A549 cells assessed as disordered spindle formation at 20 nmol/L incubated for 16 hrs by alpha-tubulin/DAPI staining based confocal microscopic analysis; assay type: functional, cell-based
[3] = tested on: A549; assay: Induction of mitotic arrest in human A549 cells assessed as micronucleation at 20 nmol/L incubated for 16 hrs by DAPI staining based confocal microscopic analysis; assay type: functional, cell-based
[4] = tested on: A-427; assay: Antiproliferative activity against human A-427 cells assessed as growth inhibition incubated for 72 hrs by celltiter-glo assay; assay type: functional
[5] = tested on: MIA PaCa-2; assay: Antiproliferative activity against human MIA PaCa-2 cells assessed as growth inhibition incubated for 72 hrs by celltiter-glo assay; assay type: functional
[6] = tested on: ASPC1; assay: Antiproliferative activity against human ASPC1 cells assessed as growth inhibition incubated for 72 hrs by celltiter-glo assay; assay type: functional
[7] = tested on: PANC-08-13; assay: Antiproliferative activity against human PANC-08-13 cells assessed as growth inhibition incubated for 72 hrs by celltiter-glo assay; assay type: functional
[8] = tested on: Hep 3B2; assay: Antiproliferative activity against human Hep3B cells assessed as growth inhibition incubated for 72 hrs by celltiter-glo assay; assay type: functional
[9] = tested on: NCI-H358; assay: Antiproliferative activity against human NCI-H358 cells assessed as growth inhibition incubated for 72 hrs by celltiter-glo assay; assay type: functional
[10] = tested on: HCT-116; assay: Antiproliferative activity against human HCT-116 cells assessed as growth inhibition incubated for 72 hrs by celltiter-glo assay; assay type: functional
[11] = tested on: OVCAR-4; assay: Antiproliferative activity against human OVCAR-4 cells assessed as growth inhibition incubated for 72 hrs by celltiter-glo assay; assay type: functional
[12] = tested on: Calu-1; assay: Antiproliferative activity against human Calu-1 cells assessed as growth inhibition incubated for 72 hrs by celltiter-glo assay; assay type: functional
[13] = tested on: SK-MEL-28; assay: Antiproliferative activity against human SK-MEL-28 cells assessed as growth inhibition incubated for 72 hrs by celltiter-glo assay; assay type: functional
[14] = Antiproliferative activity against human A375P cells assessed as growth inhibition incubated for 72 hrs by celltiter-glo assay; assay type: functional
[15] = tested on: A498; assay: Antiproliferative activity against human A498 cells assessed as growth inhibition incubated for 72 hrs by celltiter-glo assay; assay type: functional
[16] = tested on: PC-3; assay: Antiproliferative activity against human PC-3 cells assessed as growth inhibition incubated for 72 hrs by celltiter-glo assay; assay type: functional
[17] = tested on: BT-474; assay: Antiproliferative activity against human BT-474 cells assessed as growth inhibition incubated for 72 hrs by celltiter-glo assay; assay type: functional
[18] = tested on: HCC1937; assay: Antiproliferative activity against human HCC1937 cells assessed as growth inhibition incubated for 72 hrs by celltiter-glo assay; assay type: functional
[19] = tested on: COLO 205; assay: Antitumor activity against human COLO 205 cells xenografted in Nude mouse assessed as tumor growth delay time at 50 mg/kg, ip administered every 2 to 4 days; assay type: functional; details: time 2-4 day
[20] = tested on: COLO 205; assay: Antitumor activity against human COLO 205 cells xenografted in ip dosed Nude mouse assessed as increase in pIk1 level measured at 24 to 48 hrs by […]; assay type: functional, organism-based; details: dose 50-100 mg/kg, time 24-48 hrs
[21] = tested on: A2780; assay: Antiproliferative activity against human A2780 cells assessed as of viable cell signal at minimum maximum cell growth incubated for 72 hrs by celltiter-glo assay relative to control; assay type: functional
[22] = tested on: ASPC1; assay: Antiproliferative activity against human ASPC1 cells assessed as of viable cell signal at minimum maximum cell growth incubated for 72 hrs by celltiter-glo assay relative to control; assay type: functional
[23] = tested on: LNCaP; assay: Antiproliferative activity against human LNCaP cells assessed as of viable cell signal at minimum maximum cell growth incubated for 72 hrs by celltiter-glo assay relative to control; assay type: functional
[24] = tested on: LoVo; assay: Antiproliferative activity against human LoVo cells assessed as of viable cell signal at minimum maximum cell growth incubated for 72 hrs by celltiter-glo assay relative to control; assay type: functional
[25] = tested on: NCI-H1155; assay: Antiproliferative activity against human NCI-H1155 cells assessed as of viable cell signal at minimum maximum cell growth incubated for 72 hrs by celltiter-glo assay relative to control; assay type: functional
[26] = tested on: NCI-H727; assay: Antiproliferative activity against human NCI-H727 cells assessed as of viable cell signal at minimum maximum cell growth incubated for 72 hrs by celltiter-glo assay relative to control; assay type: functional
[27] = tested on: OVCAR-3; assay: Antiproliferative activity against human OVCAR-3 cells assessed as of viable cell signal at minimum maximum cell growth incubated for 72 hrs by celltiter-glo assay relative to control; assay type: functional
[28] = tested on: OVCAR-4; assay: Antiproliferative activity against human OVCAR-4 cells assessed as of viable cell signal at minimum maximum cell growth incubated for 72 hrs by celltiter-glo assay relative to control; assay type: functional
[29] = tested on: PANC-08-13; assay: Antiproliferative activity against human PANC-08-13 cells assessed as of viable cell signal at minimum maximum cell growth incubated for 72 hrs by celltiter-glo assay relative to control; assay type: functional
[30] = tested on: SW480; assay: Antiproliferative activity against human SW480 cells assessed as of viable cell signal at minimum maximum cell growth incubated for 72 hrs by celltiter-glo assay relative to control; assay type: functional
[31] = tested on: SW-620; assay: Antiproliferative activity against human SW620 cells assessed as of viable cell signal at minimum maximum cell growth incubated for 72 hrs by celltiter-glo assay relative to control; assay type: functional
[32] = tested on: BT-474; assay: Antiproliferative activity against human BT-474 cells assessed as viable cell signal at maximum growth inhibition incubated for 72 hrs by celltiter-glo assay relative to control; assay type: functional
[33] = tested on: BXPC-3; assay: Antiproliferative activity against human BXPC-3 cells assessed as viable cell signal at maximum growth inhibition incubated for 72 hrs by celltiter-glo assay relative to control; assay type: functional
[34] = tested on: HCC1937; assay: Antiproliferative activity against human HCC1937 cells assessed as viable cell signal at maximum growth inhibition incubated for 72 hrs by celltiter-glo assay relative to control; assay type: functional
[35] = tested on: HeLa; assay: Antiproliferative activity against human HeLa cells assessed as viable cell signal at maximum growth inhibition incubated for 72 hrs by celltiter-glo assay relative to control; assay type: functional
[36] = tested on: Hep 3B2; assay: Antiproliferative activity against human Hep3B cells assessed as viable cell signal at maximum growth inhibition incubated for 72 hrs by celltiter-glo assay relative to control; assay type: functional
[37] = tested on: MCF7; assay: Antiproliferative activity against human MCF7 cells assessed as viable cell signal at maximum growth inhibition incubated for 72 hrs by celltiter-glo assay relative to control; assay type: functional
[38] = tested on: OVCAR-4; assay: Antiproliferative activity against human OVCAR-4 cells assessed as viable cell signal at maximum growth inhibition incubated for 72 hrs by celltiter-glo assay relative to control; assay type: functional
[39] = tested on: Panc 02.03; assay: Antiproliferative activity against human Panc 02.03 cells assessed as viable cell signal at maximum growth inhibition incubated for 72 hrs by celltiter-glo assay relative to control; assay type: functional
[40] = tested on: SAOS-2; assay: Antiproliferative activity against human SAOS-2 cells assessed as viable cell signal at maximum growth inhibition incubated for 72 hrs by celltiter-glo assay relative to control; assay type: functional
[41] = tested on: SK-MEL-28; assay: Antiproliferative activity against human SK-MEL-28 cells assessed as viable cell signal at maximum growth inhibition incubated for 72 hrs by celltiter-glo assay relative to control; assay type: functional
[42] = tested on: SW-620; assay: Antiproliferative activity against human SW620 cells assessed as viable cell signal at maximum growth inhibition incubated for 72 hrs by celltiter-glo assay relative to control; assay type: functional

C[C@@H](Oc1cc(-n2cnc3ccc(CN4CCN(C)CC4)cc32)sc1C(N)=O)c1ccccc1C(F)(F)F [GSK-461364]
Activity [1]: Active | Activity [2]: Active | Activity [3]: Active | GI50 [4]: 22.8 nM | GI50 [5]: 39.9 nM | GI50 [6]: 22.3 nM | GI50 [7]: 18.9 nM | GI50 [8]: 35.8 nM | GI50 [9]: 13.4 nM | GI50 [10]: 50.5 nM | GI50 [11]: 24.2 nM | GI50 [12]: 186 nM | GI50 [13]: 381 nM | GI50 [14]: 23.6 nM | GI50 [15]: 40.4 nM | GI50 [16]: 14700 nM | GI50 [17]: 7090 nM | GI50 [18]: 4790 nM | Time [19]: 39 days | Activity [20]: Dose-Dependent Effect | Emin [21]: 68.5% | Emin [22]: 114% | Emin [23]: 99.3% | Emin [24]: 23.4% | Emin [25]: 119.2% | Emin [26]: 158.9% | Emin [27]: 164% | Emin [28]: 164.7% | Emin [29]: 131.3% | Emin [30]: 114.7% | Emin [31]: 54.6% | Emax [32]: 226% | Emax [33]: 278% | Emax [34]: 240% | Emax [35]: 406% | Emax [36]: 220% | Emax [37]: 429% | Emax [38]: 342% | Emax [39]: 420% | Emax [40]: 403% | Emax [41]: 353% | Emax [42]: 634%
